In PubChem BioAssay AID1918998 (Molecular Pharmacology Branch, DTP, NCI, 2023):
pIC50: −log10 of the molar value.

Test system: 521955-158-R2-J5-PDC complex spheroid growth
Assay: Anticancer human tumor 521955-158-R2-J5-PDC patient-derived pancreatic carcinoma cell line growth inhibition [AhR]
Settings: for pIC50: curve of first compound; for viability, T/C: stronger effect = lower value
Excerpt: Multicellular complex tumor spheroid response to aryl hydrocarbon receptor antagonists in combination with a variety of drugs and investigational agents in selected tumor cell lines
The current study was undertaken to assess response to aryl hydrocarbon receptor antagonists in combination with standard-of-care drugs and investigational agents in solid tumor complex spheroid models. Complex spheroids include a stromal component modeled by human endothelial cells (HUVEC) and fibroblasts modeled by human mesenchymal stem cells (MSCs). The concentration ranges selected for each drug and investigational agent were based upon clinically achievable concentrations if the clinical Cmax of the agent was known.
Compounds. The drugs and investigational agents: BAY 2416964 (NSC825713), GNF351 (NSC835774), CH-223191 (NSC835775), CPI-455 (NSC825282), aza-TdCyd (NSC777586), decitabine (NSC127716), belinostat (NSC758774), entinostat (NSC756642), pevonedistat (NSC761192), tazemetostat (NSC777109), talazoparib (NSC765396), olaparib (NSC753686), selinexor (NSC780203), nedisertib (M3814, NSC802822), bortezomib (NSC756655), venetoclax (NSC766270), doxorubicin (NSC123127), elimusertib (BAY189344, NSC800525), ceralasertib (AZD6738, NSC777638), TAK-243 (NSC785004), alisertib (NSC759677), etoposide (NSC141540), topotecan (NSC609699), eribulin (NSC707389), gemcitabine (NSC613327), carboplatin (NSC241240), cisplatin (NSC119875), and SN-38 (NSC673596) were obtained from the National Cancer Institute (NCI) Developmental Therapeutics Program Chemical Repository (32). The FDA-approved anticancer drug set is available from the Developmental Therapeutics Program at https://dtp.cancer.gov/organization/dscb/obtaining/available plates.htm. […] The stock solutions were prepared in dimethyl sulfoxide (DMSO, Sigma-Aldrich, St. Louis, MO, cat. D2650), except for the platinum compounds which were prepared in saline (Quality Biological, Gaithersburg, MD, cat. 114-055-101), at 800-fold the tested concentration and stored at -70 degrees C prior to their use. All drugs and investigational agents were tested over a range starting from a high concentration at or near the clinical Cmax and decreasing in half-log increments. If the clinical Cmax for an agent had not been determined, the highest concentration tested was 10 microM (Table 1).
Cell Culture. All cells were maintained in an incubator at 37 degrees C and 5% CO2 with 95% humidity. The PDC lines were cultured according to standard operating procedures established by the NCI PDMR (https://pdmr.cancer.gov). Briefly, all PDCs were thawed and cultured in Matrigel-coated flasks prepared with a working solution of 1X Ham's F-12 nutrient mix, without supplementation (Invitrogen, Waltham, MA, cat. 11765054), 100 U/mL penicillin-streptomycin (Invitrogen, cat. 15140122), and 2.5% Matrigel (Corning Inc., Corning, NY, cat. 354248) for the first three passages. All PDCs were cultured in complete DMEM/F-12 media containing advanced DMEM/F-12 (Invitrogen, cat. 12634028), 4.9% defined fetal bovine serum, heat inactivated (HyClone Laboratories Inc., Logan, UT, cat. SH30070.03HI), 389 ng/mL hydrocortisone (Sigma-Aldrich, cat. H4001), 9.7 ng/mL human EGF recombinant protein (Invitrogen, cat. PHG0313), 23.4 microg/mL adenine (Sigma-Aldrich, cat. A2786), 97.3 U/mL penicillin-streptomycin (Invitrogen, cat. 15140122), 1.9 mM L-glutamine (Invitrogen, cat. 25030081), and 9.7 microM Y-27632 dihydrochloride (Tocris Bioscience, Bristol, United Kingdom, cat. 1254). The PDCs were cultured in complete DMEM/F12 media without 10 microM Y-27632 dihydrochloride for at least two passages prior to the screen. The established cell lines NCI-H1341 and […] were cultured in DMEM/F-12, HEPES (Invitrogen, cat. 11330032), 5% defined fetal bovine serum (HyClone Laboratories Inc., cat. SH30070.03), ITS premix universal culture supplement [insulin (5 microg/mL), transferrin (5 microg/mL), and selenious acid (5 ng/mL)] […]

[1] = second compound 0.1 µM, first compound 0.0316 µM
[2] = second compound 0.1 µM, first compound 0.1 µM
[3] = second compound 0.1 µM, first compound 0.316 µM
[4] = second compound 0.1 µM, first compound 1 µM
[5] = second compound 0.1 µM, first compound 3.16 µM
[6] = second compound 0.1 µM, first compound 10 µM
[7] = second compound 0.316 µM, first compound 0.0316 µM
[8] = second compound 0.316 µM, first compound 0.1 µM
[9] = second compound 0.316 µM, first compound 0.316 µM
[10] = second compound 0.316 µM, first compound 1 µM
[11] = second compound 0.316 µM, first compound 3.16 µM
[12] = second compound 0.316 µM, first compound 10 µM
[13] = second compound 1 µM, first compound 0.0316 µM
[14] = second compound 1 µM, first compound 0.1 µM
[15] = second compound 1 µM, first compound 0.316 µM
[16] = second compound 1 µM, first compound 1 µM
[17] = second compound 1 µM, first compound 3.16 µM
[18] = second compound 1 µM, first compound 10 µM
[19] = second compound 3.16 µM, first compound 0.0316 µM
[20] = second compound 3.16 µM, first compound 0.1 µM
[21] = second compound 3.16 µM, first compound 0.316 µM
[22] = second compound 3.16 µM, first compound 1 µM
[23] = second compound 3.16 µM, first compound 3.16 µM
[24] = second compound 3.16 µM, first compound 10 µM
[25] = second compound 10 µM, first compound 0.0316 µM
[26] = second compound 10 µM, first compound 0.1 µM
[27] = second compound 10 µM, first compound 0.316 µM
[28] = second compound 10 µM, first compound 1 µM
[29] = second compound 10 µM, first compound 3.16 µM
[30] = second compound 10 µM, first compound 10 µM
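Wherever viability, T/C is given: spheroids mix tumor cells with HUVEC endothelium and human MSC stroma; luminescence taken as viability surrogate after a week of drug exposure.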

Compound: CCc1c2c(nc3ccc(O)cc13)-c1cc3c(c(=O)n1C2)COC(=O)[C@]3(O)CC + CC(CO)NC(=O)c1cc(-c2ccc(Cl)cc2)nn(-c2cnn(C)c2)c1=O
- pIC50 (second compound 0.1 µM): 8.65
- pIC50 (second compound 0.316 µM): > 9.02
- pIC50 (second compound 1 µM): 8.92
- pIC50 (second compound 3.16 µM): > 9.02
- pIC50 (second compound 10 µM): > 9.02
- viability, T/C (second compound 0.1 µM, first compound 0.000949 µM): 57.4%
- viability, T/C (second compound 0.1 µM, first compound 0.003 µM): 47.5%
- viability, T/C (second compound 0.1 µM, first compound 0.00949 µM): 15.7%
- viability, T/C (second compound 0.1 µM, first compound 0.03 µM): 9.8%
- viability, T/C (second compound 0.1 µM, first compound 0.0949 µM): 8.28%
- viability, T/C (second compound 0.1 µM, first compound 0.3 µM): 5.09%
- viability, T/C (second compound 0.316 µM, first compound 0.000949 µM): 49.1%
- viability, T/C (second compound 0.316 µM, first compound 0.003 µM): 36.5%
- viability, T/C (second compound 0.316 µM, first compound 0.00949 µM): 13.5%
- viability, T/C (second compound 0.316 µM, first compound 0.03 µM): 9.73%
- viability, T/C (second compound 0.316 µM, first compound 0.0949 µM): 8.11%
- viability, T/C (second compound 0.316 µM, first compound 0.3 µM): 5.79%
- viability, T/C (second compound 1 µM, first compound 0.000949 µM): 55.3%
- viability, T/C (second compound 1 µM, first compound 0.003 µM): 30%
- viability, T/C (second compound 1 µM, first compound 0.00949 µM): 16.4%
- viability, T/C (second compound 1 µM, first compound 0.03 µM): 7.85%
- viability, T/C (second compound 1 µM, first compound 0.0949 µM): 9.01%
- viability, T/C (second compound 1 µM, first compound 0.3 µM): 4.72%
- viability, T/C (second compound 3.16 µM, first compound 0.000949 µM): 35.5%
- viability, T/C (second compound 3.16 µM, first compound 0.003 µM): 29.3%
- viability, T/C (second compound 3.16 µM, first compound 0.00949 µM): 16.7%
- viability, T/C (second compound 3.16 µM, first compound 0.03 µM): 12.7%
- viability, T/C (second compound 3.16 µM, first compound 0.0949 µM): 9.72%
- viability, T/C (second compound 3.16 µM, first compound 0.3 µM): 9.82%
- viability, T/C (second compound 10 µM, first compound 0.000949 µM): 27.3%
- viability, T/C (second compound 10 µM, first compound 0.003 µM): 23.6%
- viability, T/C (second compound 10 µM, first compound 0.00949 µM): 14.9%
- viability, T/C (second compound 10 µM, first compound 0.03 µM): 8.31%
- viability, T/C (second compound 10 µM, first compound 0.0949 µM): 7.42%
- viability, T/C (second compound 10 µM, first compound 0.3 µM): 6.21%

Compound: Nc1ccn(C2OC(CO)C(O)C2(F)F)c(=O)n1 (stereo not given) + CC(CO)NC(=O)c1cc(-c2ccc(Cl)cc2)nn(-c2cnn(C)c2)c1=O
- pIC50 (second compound 0.1 µM): 6.29
- pIC50 (second compound 0.316 µM): 6.26
- pIC50 (second compound 1 µM): 6.30
- pIC50 (second compound 3.16 µM): 6.75
- pIC50 (second compound 10 µM): 7.00
- viability, T/C [1]: 59.8%
- viability, T/C [2]: 75.3%
- viability, T/C [3]: 72.4%
- viability, T/C [4]: 24.4%
- viability, T/C [5]: 13.2%
- viability, T/C [6]: 13.6%
- viability, T/C [7]: 56%
- viability, T/C [8]: 73.8%
- viability, T/C [9]: 86.4%
- viability, T/C [10]: 26.1%
- viability, T/C [11]: 11.4%
- viability, T/C [12]: 9.09%
- viability, T/C [13]: 90.5%
- viability, T/C [14]: 87.8%
- viability, T/C [15]: 68.7%
- viability, T/C [16]: 22.6%
- viability, T/C [17]: 14.2%
- viability, T/C [18]: 14.8%
- viability, T/C [19]: 78.1%
- viability, T/C [20]: 56.4%
- viability, T/C [21]: 45.5%
- viability, T/C [22]: 20.9%
- viability, T/C [23]: 16.4%
- viability, T/C [24]: 11.9%
- viability, T/C [25]: 50.2%
- viability, T/C [26]: 54.5%
- viability, T/C [27]: 36.3%
- viability, T/C [28]: 22.5%
- viability, T/C [29]: 15.5%
- viability, T/C [30]: 10.5%

Compound: O=C(c1cc(Cc2n[nH]c(=O)c3ccccc23)ccc1F)N1CCN(C(=O)C2CC2)CC1 + CC(CO)NC(=O)c1cc(-c2ccc(Cl)cc2)nn(-c2cnn(C)c2)c1=O
- pIC50 (second compound 0.1 µM): < 5.00
- pIC50 (second compound 0.316 µM): < 5.00
- pIC50 (second compound 1 µM): < 5.00
- pIC50 (second compound 3.16 µM): < 5.00
- pIC50 (second compound 10 µM): < 5.00
- viability, T/C [1]: 116%
- viability, T/C [2]: 107%
- viability, T/C [3]: 116%
- viability, T/C [4]: 85.6%
- viability, T/C [5]: 76.7%
- viability, T/C [6]: 75.3%
- viability, T/C [7]: 102%
- viability, T/C [8]: 119%
- viability, T/C [9]: 93.7%
- viability, T/C [10]: 101%
- viability, T/C [11]: 73.2%
- viability, T/C [12]: 71.3%
- viability, T/C [13]: 101%
- viability, T/C [14]: 104%
- viability, T/C [15]: 110%
- viability, T/C [16]: 88.7%
- viability, T/C [17]: 83.7%
- viability, T/C [18]: 72.6%
- viability, T/C [19]: 91.9%
- viability, T/C [20]: 128%
- viability, T/C [21]: 110%
- viability, T/C [22]: 97.7%
- viability, T/C [23]: 85.4%
- viability, T/C [24]: 70.5%
- viability, T/C [25]: 68.5%
- viability, T/C [26]: 82.6%
- viability, T/C [27]: 87.4%
- viability, T/C [28]: 79.9%
- viability, T/C [29]: 70.6%
- viability, T/C [30]: 50.5%
